{"source": "patent US11589578B2", "about": "“Painting with biocides composition and/or prolonged release pesticides” (priority 2018, dated 2023)", "origin": "cited, not measured here", "details": "for Stability in aqueous media, in words: pH as stated in the value", "note": "Where two headings read alike, the source gives them in different places.", "data": [{"smiles": "CCN(CC)c1nc(C)cc(OP(=S)(OC)OC)n1", "note": "[Methylperimiphos]", "values": [{"measurement": "Decomposition time (Average life)", "setting": "aqueous media, pH 5", "result": 7, "unit": "days"}, {"measurement": "Decomposition time (Average life)", "setting": "aqueous media, pH 8", "result": 5, "unit": "days"}]}, {"smiles": "CC1(C)[C@H](C(=O)O[C@H](C#N)c2cccc(Oc3ccccc3)c2)[C@@H]1C=C(Br)Br", "note": "[deltamethrin]", "values": [{"measurement": "Decomposition time (Average life)", "setting": "aqueous media, pH 7", "result": 0.33, "unit": "days"}, {"measurement": "Stability in aqueous media, in words", "result": "more stable in medium acid solutions"}]}, {"smiles": "O=C(NC(=O)c1c(F)cccc1F)Nc1ccc(Cl)cc1", "note": "[Diflubenzuron]", "values": [{"measurement": "Behaviour at pH 9, in words", "setting": "aqueous media, pH 9", "result": "Hydrolyzes"}]}, {"smiles": "CCOP(=S)(OCC)Oc1cc(C)nc(C(C)C)n1", "note": "[Diazinon]", "values": [{"measurement": "Decomposition time (Average life)", "setting": "aqueous media, pH 5", "result": 31, "unit": "days"}, {"measurement": "Decomposition time (Average life)", "setting": "aqueous media, pH 7.5", "result": 185, "unit": "days"}, {"measurement": "Decomposition time (Average life)", "setting": "aqueous media, pH 9", "result": 136, "unit": "days"}]}, {"smiles": "C=CCC1=C(C)C(OC(=O)C2C(C=C(C)C)C2(C)C)CC1=O", "note": "[D-allethrin]", "values": [{"measurement": "Decomposition time (Average life)", "setting": "aqueous media, pH 7", "result": 500, "unit": "days"}, {"measurement": "Decomposition time (Average life)", "setting": "aqueous media, pH 9", "result": "(4.3 days)"}, {"measurement": "Stability in aqueous media, in words", "result": "Stable at a pH 5 after 31 days"}]}, {"smiles": "CC1(C)C(C=C(Cl)Cl)C1C(=O)OC(C#N)c1cccc(Oc2ccccc2)c1", "note": "(stereo not shown) [cypermethrin]", "values": [{"measurement": "Decomposition time (Average life)", "setting": "aqueous media, pH 9", "result": 7, "unit": "days"}]}, {"smiles": "CCOP(=S)(OCC)Oc1nc(Cl)c(Cl)cc1Cl", "note": "[Chlorpyrifos]", "values": [{"measurement": "Decomposition time (Average life)", "setting": "aqueous media, pH 10", "result": 7, "unit": "days"}]}]}
